Measured values taken from ChEMBL document CHEMBL5724914, “Linking interpersonal differences in gut microbiota composition and drug biotransformation activity” (2024).

Key:
[1] = (§1) The drug is tested on Z-029 corresponding to rat gut metagenome with ENA study accession number: PRJEB37062 and ENA sample accession number: ERS12561828 for biotransformation under anaerobic condition. The drug concentrations were measured over 9 timepoints collected between 0 and 24 hours of incubation by liquid-chromatography-coupled mass spectrometry (LC–MS); conditions: 2 µM
[2] = as §1, with “Z-026” for “Z-029”, “to” for “to rat gut”, “ERS12561825” for “ERS12561828”; conditions: 2 µM
[3] = as §1, with “on Z-024” for “on Z-029”, “to pig” for “to rat”, “number: ERS12561823” for “number: ERS12561828”; conditions: 2 µM
[4] = as §1, with “on Z-022” for “on Z-029”, “to mouse” for “to rat”, “number: ERS12561821” for “number: ERS12561828”; conditions: 2 µM
[5] = as §1, with “on Z-009” for “on Z-029”, “to pig” for “to rat”, “number: ERS12561809” for “number: ERS12561828”; conditions: 2 µM
[6] = as §1, with “Z-004” for “Z-029”, “to” for “to rat gut”, “ERS12561804” for “ERS12561828”; conditions: 2 µM
[7] = as §1, with “on Z-001” for “on Z-029”, “to mouse” for “to rat”, “number: ERS12561801” for “number: ERS12561828”; conditions: 2 µM
[8] = as §1, with “on WLS-370” for “on Z-029”, “to human” for “to rat”, “number: ERS12561793” for “number: ERS12561828”; conditions: 2 µM
[9] = as §1, with “on WLS-090” for “on Z-029”, “to human” for “to rat”, “number: ERS12561753” for “number: ERS12561828”; conditions: 2 µM
[10] = as §1, with “on WLS-086” for “on Z-029”, “to human” for “to rat”, “number: ERS12561752” for “number: ERS12561828”; conditions: 2 µM
[11] = as §1, with “on WLS-027” for “on Z-029”, “to human” for “to rat”, “number: ERS12561744” for “number: ERS12561828”; conditions: 2 µM
[12] = human gut metagenome, 24 h, 2 µM
[13] = human gut metagenome, 24 h, 2 µM; remark: listed apart in the source
[14] = human gut metagenome, 24 h, 2 µM; remark: listed apart in the source
[15] = human gut metagenome, 24 h, 2 µM; remark: listed apart in the source
[16] = human gut metagenome, 24 h, 2 µM; remark: listed apart in the source
[17] = human gut metagenome, 24 h, 2 µM; remark: listed apart in the source
[18] = human gut metagenome, 24 h, 2 µM; remark: listed apart in the source
[19] = human gut metagenome, 24 h, 2 µM; remark: listed apart in the source
[20] = human gut metagenome, 24 h, 2 µM; remark: listed apart in the source
Further: call rule not given here.

SMILES	Bacterial Biotransformation [1]	Bacterial Biotransformation [2]	Bacterial Biotransformation [3]	Bacterial Biotransformation [4]	Bacterial Biotransformation [5]	Bacterial Biotransformation [6]	Bacterial Biotransformation [7]	Bacterial Biotransformation [8]	Bacterial Biotransformation [9]	Bacterial Biotransformation [10]	Bacterial Biotransformation [11]	Bacterial Biotransformation [12]	Bacterial Biotransformation [13]	Bacterial Biotransformation [14]	Bacterial Biotransformation [15]	Bacterial Biotransformation [16]	Bacterial Biotransformation [17]	Bacterial Biotransformation [18]	Bacterial Biotransformation [19]	Bacterial Biotransformation [20]
CC(Oc1c(Cl)cccc1Cl)C1=NCCN1 (stereo not given) [LOFEXIDINE]	Compound NOT metabolized	Compound NOT metabolized	Compound NOT metabolized	Compound NOT metabolized	Compound NOT metabolized	Compound NOT metabolized	Compound NOT metabolized	Compound NOT metabolized	Compound metabolized	Compound metabolized	Compound metabolized	Compound metabolized	Compound NOT metabolized	Compound NOT metabolized	Compound metabolized	Compound metabolized	Compound NOT metabolized	Compound NOT metabolized	Compound NOT metabolized	Compound metabolized
CN(C)C(=O)C(CCN1CCC(O)(c2ccc(Cl)cc2)CC1)(c1ccccc1)c1ccccc1 [LOPERAMIDE]	Compound NOT metabolized	Compound NOT metabolized	Compound metabolized	Compound metabolized	Compound metabolized	Compound metabolized	Compound metabolized	Compound metabolized	Compound metabolized	Compound metabolized	Compound metabolized	Compound metabolized	Compound metabolized	Compound metabolized	Compound metabolized	Compound metabolized	Compound metabolized	Compound metabolized	Compound metabolized	Compound metabolized
CCCCc1nc(Cl)c(CO)n1Cc1ccc(-c2ccccc2-c2nn[nH]n2)cc1 [LOSARTAN]	Compound metabolized	Compound NOT metabolized	Compound NOT metabolized	Compound NOT metabolized	Compound NOT metabolized	Compound NOT metabolized	Compound NOT metabolized	Compound metabolized	Compound metabolized	Compound metabolized	Compound metabolized	Compound metabolized	Compound metabolized	Compound NOT metabolized	Compound metabolized	Compound metabolized	Compound metabolized	Compound metabolized	Compound metabolized	Compound metabolized
COC(=O)Nc1nc2ccc(C(=O)c3ccccc3)cc2[nH]1 [MEBENDAZOLE]	Compound metabolized	Compound NOT metabolized	Compound metabolized	Compound metabolized	Compound metabolized	Compound metabolized	Compound metabolized	Compound metabolized	Compound metabolized	Compound metabolized	Compound metabolized	Compound metabolized	Compound metabolized	Compound metabolized	Compound metabolized	Compound metabolized	Compound metabolized	Compound metabolized	Compound metabolized	Compound metabolized
COc1ccccc1OCC(O)COC(N)=O (stereo not given) [METHOCARBAMOL]	Compound NOT metabolized	Compound NOT metabolized	Compound NOT metabolized	Compound NOT metabolized	Compound NOT metabolized	Compound NOT metabolized	Compound NOT metabolized	Compound NOT metabolized	Compound NOT metabolized	Compound NOT metabolized	Compound NOT metabolized	Compound NOT metabolized	Compound NOT metabolized	Compound NOT metabolized	Compound NOT metabolized	Compound NOT metabolized	Compound NOT metabolized	Compound NOT metabolized	Compound NOT metabolized	Compound NOT metabolized
CC[C@@H](CO)NC(=O)[C@@H]1C=C2c3cccc4c3c(cn4C)C[C@H]2N(C)C1.O=C(O)/C=C\C(=O)O [METHYSERGIDE MALEATE]	Compound NOT metabolized	Compound NOT metabolized	Compound NOT metabolized	Compound NOT metabolized	Compound NOT metabolized	Compound NOT metabolized	Compound NOT metabolized	Compound NOT metabolized	Compound NOT metabolized	Compound metabolized	Compound NOT metabolized	Compound NOT metabolized	Compound NOT metabolized	Compound NOT metabolized	Compound metabolized	Compound NOT metabolized	Compound NOT metabolized	Compound NOT metabolized	Compound NOT metabolized	Compound metabolized
CCN(CC)CCNC(=O)c1cc(Cl)c(N)cc1OC [METOCLOPRAMIDE]	Compound NOT metabolized	Compound NOT metabolized	Compound NOT metabolized	Compound NOT metabolized	Compound NOT metabolized	Compound NOT metabolized	Compound NOT metabolized	Compound NOT metabolized	Compound NOT metabolized	Compound metabolized	Compound NOT metabolized	Compound NOT metabolized	Compound NOT metabolized	Compound NOT metabolized	Compound NOT metabolized	Compound NOT metabolized	Compound NOT metabolized	Compound NOT metabolized	Compound NOT metabolized	Compound metabolized
Cc1ccccc1N1C(=O)c2cc(S(N)(=O)=O)c(Cl)cc2NC1C (stereo not given) [METOLAZONE]	Compound NOT metabolized	Compound metabolized	Compound NOT metabolized	Compound NOT metabolized	Compound NOT metabolized	Compound NOT metabolized	Compound NOT metabolized	Compound NOT metabolized	Compound metabolized	Compound metabolized	Compound NOT metabolized	Compound NOT metabolized	Compound NOT metabolized	Compound NOT metabolized	Compound metabolized	Compound NOT metabolized	Compound metabolized	Compound metabolized	Compound NOT metabolized	Compound metabolized
